{"source": "patent US11058705B2", "about": "“Drug formulations” (Astex Pharmaceuticals, Inc., priority 2011, dated 2021)", "key": {"DNA methylation": {"system": "DNA methylation", "test": "Cell-based GFP assay for reactivation of silenced GFP transgene (demethylating activity)", "conditions": "for GFP Expression Level: three days, decitabine 1 μM or test compound 30-50 μM, fraction of viable cells expressing GFP; for EC50: read-out: GFP50", "description": "The demethylating activity of compounds of the invention was tested in a cell-based green fluorescent protein (GFP) assay. In the assay, a decrease in methylation resulting from exposure to a methylation inhibitor led to GFP expression, and was readily scored.\nThe CMV-EE210 cell line containing the epigenetically silenced GFP transgene was used to assay for reactivation of GFP expression by flow cytometry. CMV-EE210 was made by transfecting NIH 3T3 cells with the pTR-UF/UF1/UF2 plasmid, which contained pBS(+) (Stratagene, Inc.) with a cytomegalovirus (CMV) promoter driving a humanized GFP gene adapted for expression in mammalian cells. After transfection, high-level GFP expressing cells were initially selected by FACS analysis and sorting using a MoFlo cytometer (Cytomation, Inc.).\nDecitabine, a potent inhibitor of mammalian DNMT 1, was used as a positive control. […] Cells were then seeded to 30% confluence (˜5000 cell/well) in a 96-well plate containing the test compounds, and grown for three days in at 37° C. in 5% CO2.\nThe plates were examined under a fluorescent microscope using a 450-490 excitation filter (13 filter cube, Leica, Deerfield Ill.). Wells were scored g1 positive, g2 positive, or g3 if GFP was expressed in 10%, 30%, >75% of viable cells, respectively.\nTable 1 provides the results of the test for decitabine and the test compounds as DNA methylation inhibitors. GFP50 is the concentration of an inhibitor at which the Green Fluorescent Protein (GFP) expression level is reduced from g3 to g1/2."}, "[1]": {"test": "Stability in solvent formulations by HPLC", "assay_type": "physicochemical", "conditions": "for % decomposition per hour / Percent compound detected: sodium salt", "description": "The stability of a compound of the invention in various formulations under various storage conditions was investigated. Stability was determined by HPLC at the designated time intervals."}, "[2]": {"test": "Solubility in formulation solvent and in water", "assay_type": "physicochemical", "conditions": "organic solvent or mixture; substantially anhydrous solvent of the formulations of the invention", "excerpt": "The good chemical stability taken together with the excellent solubility identified the glycol/glycerin/ethanol (65:25:10) system as a formulation for use in animal experiments."}, "LINE-1 DNA methylation": {"system": "LINE-1 DNA methylation", "test": "LINE-1 DNA methylation in blood samples, repeat dose study", "assay_type": "in vivo, cynomolgus monkeys", "conditions": "until day 22, p<0.05 versus level prior to initial dosing", "description": "In a repeat dose study, monkeys were dosed 3× weekly subcutaneously (3 mg/kg). […] (FIGS. 1 and 2.) Pharmacodynamic properties (not shown) were monitored and were acceptable. Blood samples were drawn periodically to assay LINE-1 DNA methylation."}, "[3]": {"conditions": "concentration at which GFP expression level is reduced from g3 to g1/2, CMV-EE210 cells"}}, "note": "Like-named read-outs stand apart in the source and are kept apart here."}
{"smiles": "Nc1ncn([C@H]2CC(OP(=O)(O)OC[C@H]3O[C@@H](n4cnc5c(=O)[nH]c(N)nc54)CC3O)[C@@H](CO)O2)c(=O)n1", "note": "(stereo in doubt) [Compound I-1]", "values": [{"measurement": "GFP Expression Level", "setting": "DNA methylation; CMV-EE210 cells", "value": "g3 (>75% of viable cells)"}, {"measurement": "EC50", "setting": "DNA methylation; [3]", "value": 400, "unit": "nM"}, {"measurement": "Stability in anhydrous DMSO", "setting": "[1]; anhydrous DMSO", "value": "stable"}, {"measurement": "Improvement in stability", "setting": "[1]; combined effects of cooling plus addition of ethanol to the propylene glycol/glycerin system", "value": 66, "unit": "fold"}, {"measurement": "Improvement in stability", "setting": "[1]; propylene glycol/glycerin/ethanol (65:25:10), changing from warmer to colder storage conditions", "value": 40, "unit": "fold"}, {"measurement": "% decomposition per hour", "setting": "[1]; DMSO/water (1:1, w/w), 25° C./60% relative humidity", "value": 0.72}, {"measurement": "Percent compound detected", "setting": "[1]; DMSO/water (1:1, w/w), 25° C./60% relative humidity, 5 hours", "value": 90.1, "unit": "%"}, {"measurement": "Percent compound detected", "setting": "[1]; DMSO/water (1:1, w/w), 25° C./60% relative humidity, time point 0", "value": 93.7, "unit": "%"}, {"measurement": "% decomposition per hour", "setting": "[1]; DMSO/water (3:1, w/w), 25° C./60% relative humidity", "value": 0.10}, {"measurement": "Percent compound detected", "setting": "[1]; DMSO/water (3:1, w/w), 25° C./60% relative humidity, 24 hours", "value": 94.2, "unit": "%"}, {"measurement": "Percent compound detected", "setting": "[1]; DMSO/water (3:1, w/w), 25° C./60% relative humidity, time point 0", "value": 96.6, "unit": "%"}, {"measurement": "% decomposition per hour", "setting": "[1]; propylene glycol/glycerin (70:30, v/v), room temperature", "value": 0.021}, {"measurement": "Percent compound detected", "setting": "[1]; propylene glycol/glycerin (70:30, v/v), room temperature, 24 hours", "value": 96.3, "unit": "%"}, {"measurement": "Percent compound detected", "setting": "[1]; propylene glycol/glycerin (70:30, v/v), room temperature, time point 0", "value": 96.8, "unit": "%"}, {"measurement": "% decomposition per hour", "setting": "[1]; propylene glycol/glycerin/ethanol (65:25:10, w/w/w), 2-8° C.", "value": 0.00032}, {"measurement": "Percent compound detected", "setting": "[1]; propylene glycol/glycerin/ethanol (65:25:10, w/w/w), 2-8° C., 3 months", "value": 95.1, "unit": "%"}, {"measurement": "Percent compound detected", "setting": "[1]; propylene glycol/glycerin/ethanol (65:25:10, w/w/w), 2-8° C., time point 0", "value": 95.8, "unit": "%"}, {"measurement": "% decomposition per hour", "setting": "[1]; propylene glycol/glycerin/ethanol (65:25:10, w/w/w), 25° C./60% relative humidity", "value": 0.013}, {"measurement": "Percent compound detected", "setting": "[1]; propylene glycol/glycerin/ethanol (65:25:10, w/w/w), 25° C./60% relative humidity, 3 months", "value": 67.6, "unit": "%"}, {"measurement": "Percent compound detected", "setting": "[1]; propylene glycol/glycerin/ethanol (65:25:10, w/w/w), 25° C./60% relative humidity, time point 0", "value": 95.8, "unit": "%"}, {"measurement": "% decomposition per hour", "setting": "[1]; water, pH 7.0, 2-8° C.", "value": 0.14}, {"measurement": "Percent compound detected", "setting": "[1]; water, pH 7.0, 2-8° C., 5 hours", "value": 95.1, "unit": "%"}, {"measurement": "Percent compound detected", "setting": "[1]; water, pH 7.0, 2-8° C., time point 0", "value": 95.8, "unit": "%"}, {"measurement": "% decomposition per hour", "setting": "[1]; water, pH 7.0, room temperature", "value": 1.1}, {"measurement": "Percent compound detected", "setting": "[1]; water, pH 7.0, room temperature, 5 hours", "value": 90.4, "unit": "%"}, {"measurement": "Percent compound detected", "setting": "[1]; water, pH 7.0, room temperature, time point 0", "value": 95.8, "unit": "%"}, {"measurement": "solubility", "setting": "[2]", "value": "130 to 150", "unit": "mg/mL"}, {"measurement": "Change in LINE-1 DNA methylation", "setting": "LINE-1 DNA methylation", "value": "Decreases in LINE-1 DNA methylation"}]}
{"smiles": "Nc1ncn([C@H]2C[C@H](O)[C@@H](CO)O2)c(=O)n1", "note": "[Decitabine, 5-aza-2′-deoxycytidine, reference compound]", "values": [{"measurement": "GFP Expression Level", "setting": "DNA methylation; CMV-EE210 cells", "value": "g3 (>75% of viable cells)"}, {"measurement": "EC50", "setting": "DNA methylation", "value": 500, "unit": "nM"}]}
{"smiles": "Nc1ncn([C@H]2CC(O)[C@@H](COP(=O)(O)OC3C[C@H](n4cnc5c(=O)[nH]c(N)nc54)O[C@@H]3CO)O2)c(=O)n1", "note": "(some centres unmarked) [Compound I-2]", "values": [{"measurement": "GFP Expression Level", "setting": "DNA methylation; CMV-EE210 cells", "value": "g3 (>75% of viable cells)"}, {"measurement": "EC50", "setting": "DNA methylation; [3]", "value": 700, "unit": "nM"}]}
